Experiments:
serotonin 5-HT1A = biological target: T1, serotonin 5-HT1A (Homo sapiens, UniProt P08908); assay: radioligand binding selectivity panel (CEREP/in house), single concentration
T1 construct: gene HTR1A
T1 sequence (P08908 1-422): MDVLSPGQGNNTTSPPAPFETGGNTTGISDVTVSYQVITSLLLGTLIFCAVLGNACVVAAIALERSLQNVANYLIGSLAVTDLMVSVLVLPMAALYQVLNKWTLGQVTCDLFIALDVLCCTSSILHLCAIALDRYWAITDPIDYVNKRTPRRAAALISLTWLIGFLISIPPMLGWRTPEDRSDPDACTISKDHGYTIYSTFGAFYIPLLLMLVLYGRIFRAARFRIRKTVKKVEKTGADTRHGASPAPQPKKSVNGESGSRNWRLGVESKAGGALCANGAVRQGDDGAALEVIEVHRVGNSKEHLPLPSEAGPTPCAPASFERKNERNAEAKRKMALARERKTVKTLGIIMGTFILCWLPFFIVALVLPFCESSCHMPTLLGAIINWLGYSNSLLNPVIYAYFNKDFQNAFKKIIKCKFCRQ

[1] = biological target: T2, RXFP3 (relaxin-3 receptor; GPCR135; SALPR) (Homo sapiens, UniProt Q9NSD7); assay: Ca2+ mobilization (FLIPR) agonist curve shift, allosteric ternary complex model; also increased […]R3/I5NH2 binding in membranes; format: cell-based
T2 construct: cloned human RXFP3 receptor, stably expressed in HEK-293 cells with GqI5; with Relaxin-3NH2 (amidated orthosteric agonist; also R3/I5NH2)
T2 sequence (Q9NSD7 1-469): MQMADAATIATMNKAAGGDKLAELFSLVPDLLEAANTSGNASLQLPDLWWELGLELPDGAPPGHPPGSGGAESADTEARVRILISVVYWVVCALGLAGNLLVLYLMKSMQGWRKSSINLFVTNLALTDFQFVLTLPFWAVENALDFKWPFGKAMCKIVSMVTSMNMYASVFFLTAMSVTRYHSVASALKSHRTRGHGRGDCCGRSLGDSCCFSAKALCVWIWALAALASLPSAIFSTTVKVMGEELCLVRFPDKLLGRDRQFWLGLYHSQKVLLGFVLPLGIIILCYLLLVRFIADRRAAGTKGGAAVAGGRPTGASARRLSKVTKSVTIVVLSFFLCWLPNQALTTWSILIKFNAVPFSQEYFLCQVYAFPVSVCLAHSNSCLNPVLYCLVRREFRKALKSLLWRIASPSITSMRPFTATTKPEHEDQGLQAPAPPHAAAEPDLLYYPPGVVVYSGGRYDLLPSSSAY

dopamine transporter = biological target: T3, dopamine transporter (Homo sapiens, UniProt Q01959); assay: radioligand binding selectivity panel (CEREP/in house), single concentration
T3 construct: gene SLC6A3

[2] = biological target: T4, norepinephrine transporter (Homo sapiens, UniProt P23975); assay: as above
T4 construct: gene SLC6A2
T4 sequence (P23975 whole entry): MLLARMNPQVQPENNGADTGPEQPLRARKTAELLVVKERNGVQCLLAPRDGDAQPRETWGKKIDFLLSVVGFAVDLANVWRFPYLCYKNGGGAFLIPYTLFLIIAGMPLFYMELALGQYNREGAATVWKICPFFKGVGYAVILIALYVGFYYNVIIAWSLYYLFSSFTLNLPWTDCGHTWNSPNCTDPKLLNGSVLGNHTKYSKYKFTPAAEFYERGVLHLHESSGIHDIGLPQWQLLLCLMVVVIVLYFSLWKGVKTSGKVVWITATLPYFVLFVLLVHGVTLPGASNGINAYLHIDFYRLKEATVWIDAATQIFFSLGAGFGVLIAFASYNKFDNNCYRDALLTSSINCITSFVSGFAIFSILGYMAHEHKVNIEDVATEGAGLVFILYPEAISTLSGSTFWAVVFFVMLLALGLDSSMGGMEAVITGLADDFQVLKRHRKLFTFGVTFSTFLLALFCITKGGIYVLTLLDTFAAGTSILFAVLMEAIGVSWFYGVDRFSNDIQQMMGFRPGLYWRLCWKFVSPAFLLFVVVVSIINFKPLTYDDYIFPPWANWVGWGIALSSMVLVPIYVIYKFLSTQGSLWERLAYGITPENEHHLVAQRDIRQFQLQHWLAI

T3 sequence (Q01959 whole entry): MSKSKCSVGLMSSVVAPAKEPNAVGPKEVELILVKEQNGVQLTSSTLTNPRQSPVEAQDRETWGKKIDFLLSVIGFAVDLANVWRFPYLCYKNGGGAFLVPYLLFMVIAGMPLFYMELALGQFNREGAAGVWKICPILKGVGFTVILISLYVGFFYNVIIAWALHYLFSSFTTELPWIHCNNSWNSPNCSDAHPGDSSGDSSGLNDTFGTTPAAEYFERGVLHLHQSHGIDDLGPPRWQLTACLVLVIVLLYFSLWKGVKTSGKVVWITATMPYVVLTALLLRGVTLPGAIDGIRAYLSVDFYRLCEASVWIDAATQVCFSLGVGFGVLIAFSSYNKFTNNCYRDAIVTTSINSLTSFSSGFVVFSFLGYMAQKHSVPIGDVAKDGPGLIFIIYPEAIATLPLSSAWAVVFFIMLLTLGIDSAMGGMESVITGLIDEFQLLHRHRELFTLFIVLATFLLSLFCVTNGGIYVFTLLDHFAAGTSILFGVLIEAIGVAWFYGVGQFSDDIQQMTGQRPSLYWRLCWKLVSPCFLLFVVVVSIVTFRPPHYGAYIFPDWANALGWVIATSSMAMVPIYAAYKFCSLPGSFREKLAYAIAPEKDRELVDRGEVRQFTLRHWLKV

COc1ccc2[nH]cc(CCN(Cc3ccc(Cl)c(Cl)c3)C(=O)Nc3cc(C(F)(F)F)cc(C(F)(F)F)c3)c2c1 [135PAM1, 3-[3,5-Bis(trifluoromethyl)phenyl]-1-(3,4-dichlorobenzyl)-1-[2-(5-methoxy-1H-indol-3-yl)ethyl]urea]
inhibition at 10 µM (serotonin 5-HT1A): 74%
Kb [1]: 355 nM
inhibition at 10 µM (dopamine transporter): 83%
inhibition at 10 µM [2]: 59%
